Assay results published in patent publication US11440887B2, “Substituted 1,2,3,4-tetrahydroquinolines as inhibitors of repair enzyme 8-oxoguanine deoxyribonucleic acid glycosylase activity” (The Board of Trustees of the Leland Stanford Junior …, priority 2017, dated 2022).

Assays:
OGG1 [1] = target: T1, OGG1 (Homo sapiens (Human), UniProt O15527); experiment: OGG1 inhibitor assay with fluorogenic OGR1 probe (base excision, initial rates); assay type: biochemical
Method: Methods: Synthesized compounds and hOGG1 (100 nM) were incubated in NEBuffer 4 (1×) with BSA (1×) at 37° C. (15 min) in 100 μL reaction volumes in a black 96-well plate. (See, e.g., Edwards, S. K., et al., ChemBioChem 2015, 16, 1637-1646, the disclosure of which is incorporated herein by reference.) After that, OGR1 (1.2 μM) was added to the reaction mixture. Fluorescence at 460 nm was measured on a Thermo Fluoroskan Ascent FL fluorescence plate reader (λex=355 nm). The slope of initial rate (12 min) was calculated, and % of control was used for inhibition activity. BSA, hOGG1 and NEBuffer 4 were purchased from New England Biolabs and used. UltraPure Distilled Water (Invitrogen) was purchased and used for the assay.

[2] = target: MTH1 (human MutT homolog 1) (Homo sapiens (Human), UniProt P36639); experiment: MTH1 assay (ARGO probe, Kinase-Glo); assay type: biochemical; conditions: 20 μM
Method: (30 min). After that, 5 μL of this reaction solution was mixed with 20 μL of Kinase-Glo. Immediately, luminescence was measured on a Thermo Fluoroskan Ascent FL fluorescence plate reader. (See, e.g., Ji, D., et al., J. Am. Chem. Soc. 2016, 138, 9005-9008, the disclosure of which is incorporated herein by reference.) The slope of initial rate (6 min) was calculated, and % of control was used for inhibition activity. MTH1 was purchased from Abcam, PNK buffer was purchased from New England Biolabs, and Kinase-Glo was purchased from Promega.

ABH2 = ABH2 (Homo sapiens (Human), UniProt Q6NS38); experiment: ABH2 assay; assay type: biochemical; conditions: 20 μM inhibitor
Method: Enzyme (0.5 μM) was pre-incubated for 5 minutes with 20 μM inhibitor or vehicle or at 37° C. in 50 mM HEPES buffer (pH 8.0) containing 75 μM Fe(NH4)2(SO4)2, 1 mM α-ketoglutarate, 2 mM Sodium ascorbate, 50 μg/ml BSA and 0.4 mg/ml Catalase. The probe (1 μM) was added and fluorescent signal plotted over 10 minutes to calculate initial rate. Inhibitor rates were normalized against the vehicle control rate.

SMUG1 = SMUG1 (Homo sapiens (Human), UniProt Q53HV7); experiment: SMUG1 assay; assay type: biochemical; conditions: 20 μM inhibitor
Method: (See, e.g., Ono, T., et al., Nucleic Acids Res. 2013, 41, e127-e127, the disclosure of which is incorporated herein by reference.) Enzyme (500 U/mL) was pre-incubated for 5 minutes with 20 μM inhibitor or vehicle or at 37° C. in 50 mM Tris (pH 7.4), 1 mM DTT and 0.5 mM EDTA. Probe 2 (1 μM) was added and the fluorescent signal was plotted over 15 minutes to calculate initial rate. Inhibitor rates were normalized against the vehicle control rate.

HEK293T cells = experiment: MTT assay, HEK293T; assay type: cell-based, human; conditions: 24 h
Method: Methods: HEK293T cells (concentration of 1.6×10^4 cells per well) and HeLa cells (concentration of 1.2×10^4 cells per well) were seeded to 96-well plate in supplemented DMEM culture medium (10% FBS, 100 U Pen./Strep.) and incubated for 30 h (HEK293T cells) and 16 h (HeLa cells) at +37° C. and 5% CO2. […] After the incubation period, 10 μL of the MTT labeling reagent (final concentration 0.5 mg/ml) was added to each well, and incubated at +37° C. and 5%. 100 μl of the solubilization solution was added into each well, and incubated for 20 h at +37° C. and 5%. Absorbance of the samples was measured by using a microplate reader Tecan Infinite M1000 at 550, and 650 nm. […] In the rest of the samples (10 μM, 1 μM, 100 nM, and 10 nM) concentration of DMSO was at the level of 1%. The controls were prepared: Ctrl—cells cultured only in the supplemented DMEM; Ctrl 5% DMSO—cells cultured in 5% DMSO in the supplemented DMEM; Ctrl 1% DMSO—cells cultured in 1% DMSO in the supplemented DMEM.

[3] = tested on: Caco-2 cells (clone C2BBe1); experiment: CACO-2 permeability assay; assay type: in vitro ADME; conditions: for Recovery: 5 μM, 120 minutes; for Papp AVG: average; for Papp R1: replicate 1
Method: Methods: Caco-2 cells (clone C2BBe1) were obtained from American Type Culture Collection (Manassas, Va.). Cell monolayers were grown to confluence on collagen-coated, microporous membranes in 12-well assay plates. Details of the plates and their certification are shown below. The permeability assay buffer was Hanks' balanced salt solution containing 10 mM HEPES and 15 mM glucose at a pH of 7.4. The buffer in the receiver chamber also contained 1% bovine serum albumin. The dosing solution concentration was 5 μM of test article in the assay buffer. Cell monolayers were dosed on the apical side (A-to-B) or basolateral side (B-to-A) and incubated at 37° C. with 5% CO2 in a humidified incubator. Samples were taken from the donor and receiver chambers at 120 minutes. Each determination was performed in duplicate. The flux of Lucifer yellow was also measured post-experimentally for each monolayer to ensure no damage was inflicted to the cell monolayers during the flux period. All samples were assayed by LC-MS/MS using electrospray ionization.

OGG1 [4] = target: T1, OGG1; experiment: Surface plasmon resonance (SPR) binding to OGG1
Method: Additional embodiments utilize surface plasmon resonance (SPR) to investigate the binding of various compounds to OGG1. […] Specifically, FIG. 8A illustrates a sensorgram plot of binding response versus time, while FIG. 8B illustrates binding response versus concentration of an inhibitor. Further, FIG. 8C provides Ka, Kd and KD values that are calculated for compounds of various embodiments. These figures indicate that certain embodiments bind strongly to OGG1.

[5] = tested on: DUT (deoxyuridine 5′-triphosphate nucleotidohydrolase); conditions: 20 μM

T1 sequence (O15527 whole entry): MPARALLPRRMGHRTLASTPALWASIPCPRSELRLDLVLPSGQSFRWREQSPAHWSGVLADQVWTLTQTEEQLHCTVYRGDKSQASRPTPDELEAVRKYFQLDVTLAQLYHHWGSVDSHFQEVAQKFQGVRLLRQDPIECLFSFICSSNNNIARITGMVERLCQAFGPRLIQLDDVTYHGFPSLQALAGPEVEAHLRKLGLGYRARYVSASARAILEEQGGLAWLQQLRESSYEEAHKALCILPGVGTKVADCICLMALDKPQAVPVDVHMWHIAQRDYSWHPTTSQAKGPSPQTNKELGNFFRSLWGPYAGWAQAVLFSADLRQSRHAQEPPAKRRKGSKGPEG
Sequence of ABH2 (Q6NS38 whole entry, species assumed): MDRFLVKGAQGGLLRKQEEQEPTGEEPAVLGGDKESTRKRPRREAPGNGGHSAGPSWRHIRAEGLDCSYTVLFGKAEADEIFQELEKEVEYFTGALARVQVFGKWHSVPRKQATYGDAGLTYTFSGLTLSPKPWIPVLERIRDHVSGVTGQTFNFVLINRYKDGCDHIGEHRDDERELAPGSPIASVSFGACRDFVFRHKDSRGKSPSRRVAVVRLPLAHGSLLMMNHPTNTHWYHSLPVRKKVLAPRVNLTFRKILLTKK
Sequence of SMUG1 (Q53HV7 whole entry, species assumed): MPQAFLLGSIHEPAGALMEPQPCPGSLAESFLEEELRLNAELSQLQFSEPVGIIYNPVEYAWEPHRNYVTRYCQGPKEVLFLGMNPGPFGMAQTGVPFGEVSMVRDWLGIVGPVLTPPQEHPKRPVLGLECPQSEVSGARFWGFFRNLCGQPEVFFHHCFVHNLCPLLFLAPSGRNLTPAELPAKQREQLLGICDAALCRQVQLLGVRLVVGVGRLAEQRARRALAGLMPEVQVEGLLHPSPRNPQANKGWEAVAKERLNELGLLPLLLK

In the case of NC(=O)c1cccc(-c2ccc(S(=O)(=O)Nc3ccc4c(c3)N(C(=O)C3CC3)CCC4)cc2)c1 [Compound 41], the “Enzyme activity, % of control at 200 nM” value (OGG1 [1]; 200 nM compound, ratio of initial rate slope (first 12 min) to no-compound control) is reported as 39 ± 2.5 % of control, the “Enzyme activity, % of control at 2 μM” value (OGG1 [1]; 2 μM compound, ratio of initial rate slope (first 12 min) to no-compound control) is reported as 4.8 % of control and the IC50 (OGG1 [1]; initial rates method) is reported as 59 nM. The “MTH1 enzyme activity in the presence of the inhibitor” value [2] was greater than 80%, the “ABH2 enzyme activity in the presence of the inhibitor” value (ABH2) was greater than 90% and the “SMUG1 enzyme activity in the presence of the inhibitor” value (SMUG1) was roughly 100%. For the same compound, the “cytotoxicity by MTT assay” value (HEK293T cells; 10 nM to 10 μM) was “little or no cytotoxicity”, the “toxicity by MTT assay” value (HEK293T cells; 100 μM) was 30-50% and the Recovery ([3]; A-to-B) was 65%. The “Papp AVG” value ([3]; A-to-B) was 12.5 10^−6 cm/s, the “Papp R1” value ([3]; A-to-B) was 14.2 10^−6 cm/s and the “Efflux Ratio” value ([3]; B-to-A / A-to-B) was 6.2. For the same compound, the Recovery ([3]; B-to-A) was 79%, the “Papp AVG” value ([3]; B-to-A) was 77.4 10^−6 cm/s and the “Papp R1” value ([3]; B-to-A) was 63.5 10^−6 cm/s. The “binding to OGG1 by SPR” value (OGG1 [4]) was “binds strongly” and the “activity of compound against DUT (selectivity)” value [5] was “low”.
